According to PMC8776995 (Frontiers in Chemistry, 2022):
Where “and” joins values, the source holds several entries; their conditions need not be identical. Equal values may be shown once. Read-outs that look alike come from different tables or passages of the source.

Tests used:
A549 cells = assay: CCK-8 antiproliferation assay, A549; conditions: for Inhibitory efficacy: A549 cells
H1975 cells = assay: CCK-8 antiproliferation assay, H1975; conditions: given as fraction, Repeat 1-3; for Inhibitory efficacy: H1975 cells
H460 cells = assay: Annexin V/PI flow cytometry for cell apoptosis, H460; assay type: cell-based, human; conditions: for Percentage of apoptosis, Average: average of three runs; for Q2+Q3 / Lymphocytes/Q2: FITC-A+ , PI-A+ Freq. of Parent / Lymphocytes/Q3: FITC-A+ , PI-A- Freq. of Parent / Percentage of apoptosis: single runs; for Q2+Q3: given as fraction; for Lymphocytes/Q2: FITC-A+ , PI-A+ Freq. of Parent / Lymphocytes/Q3: FITC-A+ , PI-A- Freq. of Parent / Percentage of apoptosis: time as in file name (24h, 48h or not given)
Procedure: To establish whether the antiproliferative efficacy is associated with apoptosis, PC-9 and H460 cells were treated with compound e4 or e12 of various concentrations (4, 8 and 12 μM) for 48 h, and then assessed with flow cytometry.
Cell-apoptosis analysis was carried out by flow cytometry using the Annexin V/PI apoptosis kit according to the manufacturer’s manual. Briefly, PC-9 or H460 (3 × 10^4–5 × 10^4/well) cells were seeded in 12-well plates for 24 h, and then treated with 0.1% DMSO (as control) or various concentrations of compound e4 or e12 for 48 h, respectively. Cells were harvested, washed with PBS, and then incubated with 100ul of 1X Annexin V binding buffer containing 1 μl PI and 1 μl FITC Annexin V for 15 min at RT in the dark. 200 µl of 1X binding buffer were added to each tube for flow cytometry analysis (BD LSRFortessa™ Flow Cytometer). The percentages of apoptotic cells were analyzed using FlowJo soft.

[1] = test system: AKT phosphorylation (S473) in PC-9 cells; assay: Western blot, p-AKT/AKT in PC-9; conditions: for p-AKT/AKT: band density ratio; for p-AKT/AKT relative to DMSO: ratio normalised to DMSO = 1
Procedure: We also performed western blot analysis to evaluate the impact of e4 and e12 on EGFR signaling in PC-9 and H460 cells.
H460 cells were seeded in six-well plates with serum-free medium overnight, and then treated complete medium containing 0.1% DMSO, various concentrations (0.1, 1 and 10 μM) of either compound e4 or e12 for 2 h, respectively. […] Then the H460 cells were treated with complete medium containing EGF (10 ng/ml) for 5 min. Then the cells were harvested and washed with PBS, centrifuged, resuspended in 100–200 μl of RIPA lysis buffer containing Protease and Phosphatase Inhibitor Cocktail (1X), and then centrifuged for 5 min at 12,000 rpm at 4°C. The supernatant was used for protein analysis. […] Then the membrane was washed 5 min (X3) and incubated at 1:3,000 dilution of anti-rabbit secondary antibodies or 1:1,000 dilution of anti-mouse secondary antibodies for 1 h at RT. After washing with TBST 5 min (X3), protein bands were developed by chemiluminescence. The protein levels were quantified by the gray values of the bands in the resulting images by ImageJ, and the control group was used as the standard. […] The PC-9 cells were harvested and analyzed as above.

[2] = test system: CCND1, CCNA2, CCNB1, CDK2, CDK6 RNA in PC-9 cells; assay: qPCR assay for cell cycle-related gene analysis; assay type: cell-based, human; conditions: for CCNB relative mRNA expression (2^-ddCt vs NC, normalised to beta-Actin) / CCND1 relative mRNA expression (2^-ddCt vs NC, normalised to beta-Actin) / CDK6 relative mRNA expression (2^-ddCt vs NC, normalised to beta-Actin): qPCR SYBR_GREEN, NC = 1; for RQ: endogenous control b-Actin, reference sample NC; for 2^ΔΔCт CCNA: Repeat 1-3, relative to NC = 1
From the text: To better understand the mechanisms underlying cell cycle arrest induced by e4 and e12 in NSCLC cells, we assessed the expression levels of a few genes involved in cell cycle regulation, including cyclin D1 (CCND1), cyclin A2 (CCNA2), cyclin B1 (CCNB1), cyclin-dependent kinase 2 (CDK2), and cyclin-dependent kinase 6 (CDK6) in PC-9 by qPCR. […] CCNA2 is known to bind and activate CDK2 and thus promotes the transition through G1/S and G2/M. CCNB1 and CCND1 are essential to mitosis and G1/S transition respectively. While G2/M arrest weas not detected, the changes in these gene expression profiles interpret the G1/S arrests in PC-9 cells treated with e4 and e12. PC-9 cells exposed to the compounds for various periods should be examined further.
Total RNA of cells was extracted and cDNA was synthesized. The primers for the target products were designed as in Table 3.

IC50 (A549 cells; Homo sapiens, A549, 48 h, read-out: IC50 (μM) A549, CCK-8, 48 h, average ± SD of three independent experiments): < 10 µM
IC50 (A549 cells; read-out: IC50 (μM) A549, CCK-8, 48 h, average ± SD of three independent experiments): 5.8 ± 0.78 µM
Structure (SMILES): COCCOc1cc2ncnc(Nc3cccc(-c4cn(Cc5cc(Br)cc(Br)c5)nn4)c3)c2cc1OCCOC [e4, [6,7-Bis-(2-methoxy-ethoxy)-quinazolin-4-yl]-{3-[1-(3,5-dibromo-benzyl)-1H-[1,2,3]triazol-4-yl]-phenyl}-amine]
Inhibitory efficacy (A549 cells; 4uM, given as fraction, Repeat 1-3): 0.2144 and 0.2227
Inhibitory efficacy (A549 cells; 8uM, given as fraction, Repeat 1-3): 0.7075 and 0.6166
Inhibitory efficacy (A549 cells; 16uM, given as fraction, Repeat 1-3): 0.9444 and 0.9355
inhibition at 4 µM (A549 cells; Homo sapiens, A549, read-out: Inhibitory efficacy, A549 cells, 4uM, given as fraction, Repeat 1-3): 35.6%
inhibition at 8 µM (A549 cells; Homo sapiens, A549, read-out: Inhibitory efficacy, A549 cells, 8uM, given as fraction, Repeat 1-3): 75.6%
inhibition at 16 µM (A549 cells; Homo sapiens, A549, read-out: Inhibitory efficacy, A549 cells, 16uM, given as fraction, Repeat 1-3): 94.8%
Inhibitory efficacy (H1975 cells; 2uM): 0.363 and 0.4168
Inhibitory efficacy (H1975 cells; 4uM): 0.3676 and 0.4565
Inhibitory efficacy (H1975 cells; 8uM): 0.9443
Inhibitory efficacy (H1975 cells; 16uM): 0.9548 and 0.9653
inhibition at 2 µM (H1975 cells; Homo sapiens, NCI-H1975, read-out: Inhibitory efficacy, H1975 cells, 2uM): 30.2%
inhibition at 4 µM (H1975 cells; Homo sapiens, NCI-H1975, read-out: Inhibitory efficacy, H1975 cells, 4uM): 39.3%
inhibition at 8 µM (H1975 cells; Homo sapiens, NCI-H1975, read-out: Inhibitory efficacy, H1975 cells, 8uM): 92.2%
inhibition at 16 µM (H1975 cells; Homo sapiens, NCI-H1975, read-out: Inhibitory efficacy, H1975 cells, 16uM): 96.1%
Percentage of apoptosis, Average (H460 cells; H460, 4uM): 9.783%
Q2+Q3 (H460 cells; H460, 4uM): 0.1032 and 0.0852 and 0.1051
Lymphocytes/Q2: FITC-A+ , PI-A+ Freq. of Parent (H460 cells; H460, 4uM): 5.85% and 4.70% and 6.80%
Lymphocytes/Q3: FITC-A+ , PI-A- Freq. of Parent (H460 cells; H460, 4uM): 4.47% and 3.82% and 3.71%
Percentage of apoptosis (H460 cells; H460, 4uM): 10.32% and 8.52% and 10.51%
Percentage of apoptosis, Average (H460 cells; H460, 8uM): 47.9767%
Q2+Q3 (H460 cells; H460, 8uM): 0.4733 and 0.459 and 0.507
Lymphocytes/Q2: FITC-A+ , PI-A+ Freq. of Parent (H460 cells; H460, 8uM): 41.3% and 35.4% and 44.0%
Lymphocytes/Q3: FITC-A+ , PI-A- Freq. of Parent (H460 cells; H460, 8uM): 6.03% and 10.5% and 6.70%
Percentage of apoptosis (H460 cells; H460, 8uM): 47.33% and 45.9% and 50.7%
Percentage of apoptosis, Average (H460 cells; H460, 12uM): 72.3733%
Q2+Q3 (H460 cells; H460, 12uM): 0.7923 and 0.7087 and 0.6702
Lymphocytes/Q2: FITC-A+ , PI-A+ Freq. of Parent (H460 cells; H460, 12uM): 74.3% and 67.3% and 60.8%
Lymphocytes/Q3: FITC-A+ , PI-A- Freq. of Parent (H460 cells; H460, 12uM): 4.93% and 3.57% and 6.22%
Percentage of apoptosis (H460 cells; H460, 12uM): 79.23% and 70.87% and 67.02%
cell apoptosis (flow cytometry) (H460 cells; H460, 4, 8 and 12 μM, 48 h): significant cell apoptosis
p-AKT/AKT ([1]; PC-9, 0.1 uM): 0.8512
p-AKT/AKT relative to DMSO ([1]; PC-9, 0.1 uM): 0.8172
p-AKT/AKT ([1]; PC-9, 1 uM): 0.7155
p-AKT/AKT relative to DMSO ([1]; PC-9, 1 uM): 0.6869
p-AKT/AKT ([1]; PC-9, 10 uM): 0.5338
p-AKT/AKT relative to DMSO ([1]; PC-9, 10 uM): 0.5125
phosphorylation of AKT (western blot) ([1]; PC-9, especially at 10 μM): suppressed
CCNB relative mRNA expression (2^-ddCt vs NC, normalised to beta-Actin) ([2]; 4uM): 0.8081
CCNB relative mRNA expression (2^-ddCt vs NC, normalised to beta-Actin) ([2]; 8uM): 0.7848
CCND1 relative mRNA expression (2^-ddCt vs NC, normalised to beta-Actin) ([2]; 8uM): 0.7172
CDK6 relative mRNA expression (2^-ddCt vs NC, normalised to beta-Actin) ([2]; 8uM): 0.824
CCNB relative mRNA expression (2^-ddCt vs NC, normalised to beta-Actin) ([2]; 12uM): 0.736
CCND1 relative mRNA expression (2^-ddCt vs NC, normalised to beta-Actin) ([2]; 12uM): 0.6074
CDK6 relative mRNA expression (2^-ddCt vs NC, normalised to beta-Actin) ([2]; 12uM): 1.051
RQ ([2]; CCNA mRNA, 4uM): 0.764
RQ ([2]; CCNA mRNA, 8uM): 0.7042
RQ ([2]; CCNA mRNA, 12uM): 0.7817
2^ΔΔCт CCNA ([2]; 4uM): 0.7613 and 0.8165 and 0.764
2^ΔΔCт CCNA ([2]; 8uM): 0.7109 and 0.778 and 0.7042
2^ΔΔCт CCNA ([2]; 12uM): 0.5857 and 0.5446 and 0.7817
RQ ([2]; CCNB mRNA, 4uM): 0.9138
RQ ([2]; CCNB mRNA, 8uM): 0.7783
RQ ([2]; CCNB mRNA, 12uM): 1.003
